# Test results: ChEMBL document CHEMBL4270639, “Design of PPAR-γ agonist based on algal metabolites and the endogenous ligand 15-deoxy-Δ12, 14-prostaglandin J2” (Eur J Med Chem, 2018)
# Activity calls are given as the source filed them. The rule behind the calls is not given here.
# Molecular target: T1, Peroxisome proliferator-activated receptor gamma (Homo sapiens) (UniProt P37231)
# T1 sequence (whole entry): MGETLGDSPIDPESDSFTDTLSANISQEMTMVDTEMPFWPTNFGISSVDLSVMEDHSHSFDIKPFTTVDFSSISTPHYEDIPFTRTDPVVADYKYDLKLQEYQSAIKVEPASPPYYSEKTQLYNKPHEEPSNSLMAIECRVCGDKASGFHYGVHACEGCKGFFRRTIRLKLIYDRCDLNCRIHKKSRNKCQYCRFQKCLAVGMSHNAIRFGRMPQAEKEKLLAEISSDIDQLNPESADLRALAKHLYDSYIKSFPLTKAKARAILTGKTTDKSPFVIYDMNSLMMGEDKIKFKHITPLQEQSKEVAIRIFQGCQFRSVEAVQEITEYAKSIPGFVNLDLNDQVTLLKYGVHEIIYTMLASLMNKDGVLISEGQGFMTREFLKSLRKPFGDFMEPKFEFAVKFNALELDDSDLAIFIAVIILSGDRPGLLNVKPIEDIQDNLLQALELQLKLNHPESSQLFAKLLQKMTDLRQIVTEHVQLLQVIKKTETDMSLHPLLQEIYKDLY
# Assay: Transactivation of full length human FLAG-tagged PPARgamma1 LBD expressed in rat Ac2F cells at 5 to 10 uM after 6 hrs by luciferase reporter gene assay
# Type: cell-based
row,SMILES,Activity
1,COC(=O)CC1CCC(=O)C1=CCc1ccccc1 (stereo not drawn),Active
2,COC(=O)CC1CCC(=O)C1CC1CCCCC1 (stereo not drawn),inactive
3,COC(=O)CC1CCC(=O)C1=CC1CCCCC1 (stereo not drawn),Active
4,COC(=O)CC1CCC(=O)/C1=C/C1CCCCC1 (stereo not drawn),Active
5,CCOC(=O)CC1CCC(=O)/C1=C/C1CCCCC1 (stereo not drawn),Active
6,CCOC(=O)C[C@@H]1CCC(=O)/C1=C/C1CCCCC1,Active
7,O=C(O)CC1CCC(=O)/C1=C/C1CCCCC1 (stereo not drawn),Active
8,COC(=O)CC1CCC(=O)C1=CC(C)c1ccccc1 (stereo not drawn),inactive
9,COC(=O)CC1CCC(=O)C1=CC(c1ccccc1)c1ccccc1 (stereo not drawn),inactive
10,COC(=O)CC1CCC(=O)C1=CC1CCCC1 (stereo not drawn),Active
11,COC(=O)CC1CCC(=O)C1=CC(OC)OC (stereo not drawn),Active
12,CCOC(=O)C[C@H]1CCC(=O)/C1=C/C1CCCCC1,Active

# Further lines, results first:
row,Activity,SMILES
1,inactive,COC(=O)CC1CCC(=O)/C1=C\CCc1ccccc1 (stereo not drawn)
2,inactive,CCCCCCCCC=C1C(=O)CCC1CC(=O)OC (stereo not drawn)
3,inactive,COC(=O)CC1CCC(=O)/C1=C/CCc1ccccc1 (stereo not drawn)
4,inactive,CCCCCCC=C1C(=O)CCC1CC(=O)OC (stereo not drawn)
5,inactive,CCCC=C1C(=O)CCC1CC(=O)OC (stereo not drawn)
6,Active,CCCCC(C=C1C(=O)CCC1CC(=O)OC)CC (stereo not drawn)
7,inactive,CCCCCCCC=C1C(=O)CCC1CC(=O)OC (stereo not drawn)
8,inactive,CCCCC=C1C(=O)CCC1CC(=O)OC (stereo not drawn)
9,inactive,CCC=C1C(=O)CCC1CC(=O)OC (stereo not drawn)
10,Active,COC(=O)CC1CCC(=O)C1=CCC(C)C (stereo not drawn)

# Test system: not listed separately
# Assay: Cytotoxicity against rat Ac2F cells assessed as decrease in cell viability after 24 hrs by WST assay
# Type: cell-based
row,SMILES,Activity
1,COC(=O)CC1CCC(=O)C1=CC1CCCCC1 (stereo not drawn),Non-Toxic
